Measurements published in patent publication US10913738B2 (BRISTOL-MYERS SQUIBB COMPANY, priority 2017, dated 2021).
Like-named read-outs stand apart in the source and are kept apart here.

Columns and labels:
[1] = tested on: MLKL phosphorylation in HT29-L23 human colorectal adenocarcinoma cells; experiment: MLKL Phosphorylation High-Content Assay; format: cell-based; details: Homo sapiens
Summary of the method: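 IC50 and Ymax obtained by 4-parameter logistic fitting of MLKL phosphorylation, measured as mean circ-ring average intensity ratio from high-content images. Staining used an anti-phospho-S358 MLKL antibody overnight at 4° C., following six-hour cell incubation at 37° C.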

[2] = molecular target: T1, His-GST-TVMV-hRIPK1(1-324) (Homo sapiens, UniProt Q13546); experiment: RIPK1 HTRF Binding Assay
T1 construct: The coding region of human RIPK1(1-324) flanked by NdeI site at 5′ end; made in house; host or cells: Spodoptera frugiperda (Sf9) insect cells, baculovirus
T1 sequence (Q13546 1-324): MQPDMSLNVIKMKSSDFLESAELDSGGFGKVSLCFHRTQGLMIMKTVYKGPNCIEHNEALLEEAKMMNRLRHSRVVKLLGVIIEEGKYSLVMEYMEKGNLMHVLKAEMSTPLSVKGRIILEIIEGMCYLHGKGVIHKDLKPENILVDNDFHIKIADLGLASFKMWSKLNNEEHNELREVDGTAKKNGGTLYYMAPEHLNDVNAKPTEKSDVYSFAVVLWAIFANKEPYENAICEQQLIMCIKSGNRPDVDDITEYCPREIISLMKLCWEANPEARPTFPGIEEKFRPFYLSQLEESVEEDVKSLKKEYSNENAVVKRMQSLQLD

[3] = x marks IC50 class 20-200 nM, read-out: pMLKL cell activity 20-200 nM
[4] = x marks IC50 class 20-200 nM, read-out: RIPK1 HTRF binding 20-200 nM
[5] = x marks IC50 class <20 nM, read-out: RIPK1 HTRF binding <20 nM
[6] = x marks IC50 class <20 nM, read-out: pMLKL cell activity <20 nM

Compound	IC50 [1, 3]	IC50 [2, 4]	IC50 [2, 5]	IC50 ([1]; x marks IC50 class >200 nM, read-out: pMLKL cell activity >200 nM)	IC50 [1, 6]
Cc1nc(Cl)c(C(=O)N[C@H](C)c2cc(OC(F)(F)F)ccc2F)cc1-c1ccn2nc(N)nc2c1 [Example 323, (R)-5-(2-amino-[1,2,4]triazolo[1,5-a]pyridin-7-yl)-2-chloro-N-(1-(2-fluoro-5-(trifluoromethoxy)phenyl)ethyl)-6-methylnicotinamide]	0.02 to 0.2 µM	0.02 to 0.2 µM			
C[C@@H](NC(=O)c1cc(-c2ccn3nc(N)nc3c2)cnc1Cl)c1cc(OC(F)(F)F)ccc1F [Example 324, (R)-5-(2-amino-[1,2,4]triazolo[1,5-a]pyridin-7-yl)-2-chloro-N-(1-(2-fluoro-5-(trifluoromethoxy)phenyl)ethyl)nicotinamide]	0.02 to 0.2 µM		< 0.02 µM		
COc1nc(C)c(-c2ccn3nc(N)nc3c2)cc1C(=O)N(C)[C@H](C)c1cc(OC(F)(F)F)ccc1F [Example 325, (R)-5-(2-amino-[1,2,4]triazolo[1,5-a]pyridin-7-yl)-N-(1-(2-fluoro-5-(trifluoromethoxy)phenyl)ethyl)-2-methoxy-N,6-dimethylnicotinamide]	0.02 to 0.2 µM	0.02 to 0.2 µM			
COc1nc(C)c(-c2ccn3nc(N)nc3c2)cc1C(=O)NCc1cccc(F)c1CN1CCCC1 [Example 326, 5-(2-Amino-[1,2,4]triazolo[1,5-a]pyridin-7-yl)-N-(3-fluoro-2-(pyrrolidin-1-ylmethyl)benzyl)-2-methoxy-6-methylnicotinamide]		0.02 to 0.2 µM		> 0.2 µM	
COc1nc(C)c(-c2ccn3nc(N)nc3c2)cc1C(=O)NCc1ccccc1OCC(C)C [Example 327, 5-(2-amino-[1,2,4]triazolo[1,5-a]pyridin-7-yl)-N-(2-isobutoxybenzyl)-2-methoxy-6-methylnicotinamide]			< 0.02 µM		< 0.02 µM
COc1nc(C)c(-c2ccn3nc(N)nc3c2)cc1C(=O)NCc1c(F)cccc1OCC(F)(F)F [Example 328, 5-(2-amino-[1,2,4]triazolo[1,5-a]pyridin-7-yl)-N-(2-fluoro-6-(2,2,2-trifluoroethoxy)benzyl)-2-methoxy-6-methylnicotinamide]			< 0.02 µM		< 0.02 µM
COc1nc(C)c(-c2ccn3nc(N)nc3c2)cc1C(=O)NCc1cc(F)ccc1OC(F)(F)F [Example 329, 5-(2-amino-[1,2,4]triazolo[1,5-a]pyridin-7-yl)-N-(5-fluoro-2-(trifluoromethoxy)benzyl)-2-methoxy-6-methylnicotinamide]	0.02 to 0.2 µM		< 0.02 µM		
COc1nc(C)c(-c2ccn3nc(N)nc3c2)cc1C(=O)NCc1ccccc1COC(C)C [Example 330, 5-(2-amino-[1,2,4]triazolo[1,5-a]pyridin-7-yl)-N-(2-(isopropoxymethyl)benzyl)-2-methoxy-6-methylnicotinamide]	0.02 to 0.2 µM		< 0.02 µM		
[2H]C([2H])(NC(=O)c1cc(-c2ccn3nc(N)nc3c2)c(C)nc1OC)c1cc(C(F)(F)F)ccc1F [Example 331, 5-(2-amino-[1,2,4]triazolo[1,5-a]pyridin-7-yl)-N-((2-fluoro-5-(trifluoromethyl)phenyl)methyl-d2)-2-methoxy-6-methylnicotinamide]	0.02 to 0.2 µM		< 0.02 µM		
COc1nc(C)c(-c2ccn3nc(N)nc3c2)cc1C(=O)NCc1ccccc1OCC(F)(F)F [Example 332, 5-(2-amino-[1,2,4]triazolo[1,5-a]pyridin-7-yl)-2-methoxy-6-methyl-N-(2-(2,2,2-trifluoroethoxy)benzyl)nicotinamide]	0.02 to 0.2 µM		< 0.02 µM		
COc1nc(C)c(-c2ccn3nc(N)nc3c2)cc1C(=O)NCc1cc(F)cc(F)c1OCC(C)C [Example 333, 5-(2-amino-[1,2,4]triazolo[1,5-a]pyridin-7-yl)-N-(3,5-difluoro-2-isobutoxybenzyl)-2-methoxy-6-methylnicotinamide]	0.02 to 0.2 µM		< 0.02 µM		
COc1nc(C)c(-c2ccn3nc(N)nc3c2)cc1C(=O)NCc1cccc(OCC(F)(F)F)c1 [Example 334, 5-(2-amino-[1,2,4]triazolo[1,5-a]pyridin-7-yl)-2-methoxy-6-methyl-N-(3-(2,2,2-trifluoroethoxy)benzyl)nicotinamide]	0.02 to 0.2 µM		< 0.02 µM		
